The text below walks through data of US6756362B2, “Methods and compositions based on inhibition of cell invasion and fibrosis by anionic polymers” (priority 1991, dated 2004).

Assay [1] concerns Murine 3T3 fibroblast. In words: Stripe assay, 3T3. Type of assay: cell-based, mouse. The following applies: for DS-PG Effect on Adhesion, Migration and Invasion / Effect of KS/CS-PG on Cell Migration: 3T3; for DS-PG Effect on Adhesion, Migration and Invasion: 2 days following plating. On the set-up: key: Bands that were completely inhibitory to cell adhesion, migration and/or invasion were evaluated as (−); those allowing limited cell adhesion, migration and/or invasion (+/−); those permissive to cell adhesion, migration and/or invasion as (+). Here is the method: (§1) Cell lines. Murine 3T3 fibroblast (NIH), rat C6 glioma (Paganetti et al., 1988, J. Cell Biol. 107:2281) and MCG-28 young immortalized mouse astrocyte (a murine neonatal astrocyte line immortalized with SV-40) were grown in medium composed of Dulbecco's modified Eagle medium (DMEM), 10% fetal calf serum (Gibco Laboratories), and penicillin G/streptomycin (100 units/ml, 100 μg/ml respectively, Gibco Laboratories). For the stripe assay, confluent plates were disaggregated with 0.05% trypsin, 0.53 mM EDTA (Gibco Laboratories) and seeded at 200,000 cells/ml (3 ml/plate). For the cell adhesion assays, confluent cultures were disaggregated with 0.03% EDTA and plated in a 96-well microtiter plate at 20,000-100,000 cells per well. PC12 cells, a pheochromocytoma cell line (Green L. A. & Tischler A. S., 1976, Proc. Natl. Acad. Sci. U.S.A. 73:2424), were grown in medium containing Roswell Park Memorial Institute (RPMI) medium 1640 (Gibco Laboratories), 10% horse serum, 5% fetal calf serum (FCS), and penicillin G/streptomycin (100 units/ml, 100 μg/ml respectively, Gibco Laboratories). The cells were disaggregated with 0.03% EDTA and plated in a 96-well microtiter plate at 3,000 cells per well.
(§2) The stripe assay was performed essentially as described by Snow et al. (1990, Exp. Neural. 309:111-130). Tissue culture Petri dishes (Falcon, 60 mm) were precoated with 0.5 ml of a mixture of 5 cm^2 section nitrocellulose (Schleicher & Schuell, Type BA 85) dissolved in 6 ml methanol, and air dried in a laminar flow hood. Cellulose filter paper (Whatman #1) was cut into 12×0.35 mm strips with a McIlwain tissue chopper (The Mickle Laboratory Engineering Co., LTD). A strip of filter paper was soaked in 20 μl of a solution of DS-PG or KS/CS-PG and LN at given concentration, blotted onto the nitrocellulose-coated dish for 30 sec. and removed. The test solution was allowed to air dry. This process was repeated several times creating clearly defined, equally spaced parallel bands of uniform width on the plates. A thin layer of 0.1 or 1 mg/ml LN was then spread evenly across the bands with a bent glass Pasteur pipet, and covered with culture medium (FIG. 1).
(§3) Plates were seeded with cell suspensions of 2.0×10^5 cells/ml or 4-10 DRG explants. The cultures were assessed for degree of adhesion, migration and/or invasion of the DS-PG or KS/CS-PG bands over a period of up to 7 days using a Leitz Fluovert microscope.
(§4) Bands that were completely inhibitory to cell adhesion, migration and/or invasion were evaluated as (−), those allowing limited cell adhesion, migration and/or invasion (+/−), and those permissive to cell adhesion, migration and/or invasion as (+). cell adhesion was defined as the initial interaction between the cell surface and the substratum which results in cell attachment and spreading. Cell migration was operationally defined as cell movement within the same substratum, and cell invasion was operationally defined as cell movement from one type of substratum to another type of substratum.

Assay [2] has as its system adult rat sciatic nerve fibroblasts (RSF). In words: Stripe assay, RSF. Type of assay: cell-based. On the set-up: key: Bands that were completely inhibitory to cell adhesion, migration and/or invasion were evaluated as (−); those allowing limited cell adhesion, migration and/or invasion (+/−); those permissive to cell adhesion, migration and/or invasion as (+). The following applies: for DS-PG Effect on Adhesion, Migration and Invasion: 2 days following plating. Here is the method: (§5) Primary Cell Cultures. Primary cultures of rat meningeal fibroblasts (RMF) were obtained from P-3 rat pups. The tissue was removed from the animals and transferred to Leibovitz's L-15 with L-glutamine medium. The tissue was then cut into small pieces with a scalpel blade, enzymatically dissociated with 0.25% trypsin in Ca^2+/Mg^2+ free Hank's balanced salt solution (CMF-HBSS, Gibco Laboratories) for 20 minutes at 37° C., and mechanically triturated. The cells were rinsed with DMEM plus 10% FCS, concentrated by centrifugation and subsequently diluted in DMEM with 10% FCS for plating at 5.0×10^6 cells per 75 cm^2 flask. Adult rat sciatic nerve fibroblasts (RSF) were obtained by explantation of 1 mm sections of adult rat sciatic nerve.
as §2, §3, §4

Assay [3] deals with rat meningeal fibroblasts (RMF). In words: Stripe assay, RMF. Type of assay: cell-based. The arrangement: key: Bands that were completely inhibitory to cell adhesion, migration and/or invasion were evaluated as (−); those allowing limited cell adhesion, migration and/or invasion (+/−); those permissive to cell adhesion, migration and/or invasion as (+). The following applies: for DS-PG Effect on Adhesion, Migration and Invasion: 2 days following plating. Here is the method: as §5, §2, §3, §4

Assay [4] relates to dorsal root ganglia (DRG) explants. The experiment in a line: Stripe assay, DRG explants. Type of assay: cell-based, chick. The arrangement: key: Bands that were completely inhibitory to cell adhesion, migration and/or invasion were evaluated as (−); those allowing limited cell adhesion, migration and/or invasion (+/−); those permissive to cell adhesion, migration and/or invasion as (+). The following applies: for DS-PG Effect on Adhesion, Migration and Invasion: 2 days following plating. The protocol: Primary Explant Cultures. Dorsal root ganglia (DRGs) were obtained from E8-E9 chick embryos. The dissection was carried out in CMF-HBSS. The spinal cord was exposed and DRGs were removed and cleaned from surrounding connective tissue. DRGs were plated in DMEM/F12, 10% fetal calf serum containing 50 ng/ml nerve growth factor (NGF). The DRGs were seeded on laminin (LN, Gibco Laboratories) or poly-L-lysine (PLL, Sigma) coated dishes.
as §2, §3, §4

Assay [5] deals with MCG-28 young immortalized mouse astrocyte. The experiment in a line: Stripe assay, MCG-28. Type of assay: cell-based. On the set-up: key: Bands that were completely inhibitory to cell adhesion, migration and/or invasion were evaluated as (−); those allowing limited cell adhesion, migration and/or invasion (+/−); those permissive to cell adhesion, migration and/or invasion as (+). The following applies: MCG28; for DS-PG Effect on Adhesion, Migration and Invasion: 2 days following plating. Here is the method: as §1, §2, §3, §4

Assay [6] concerns epidural fibrosis at laminectomy site, Lewis inbred rats. The experiment in a line: Epidural fibrosis after lumbar laminectomy in rats, gross evaluation. Type of assay: in vivo, rat. On the set-up: scale not given here. The following applies: Table 4; 20 mg/ml; 4 weeks post-implantation.
Setting [7] is: 0.1 mg/ml DS-PG + 20 μg/ml LN stripes.
[8] abbreviates: 0.2 mg/ml DS-PG + 20 μg/ml LN stripes.
The mark [9] stands for this setting: 0.4 mg/ml DS-PG + 20 μg/ml LN stripes.
The mark [10] stands for this setting: 0.8 mg/ml DS-PG + 20 μg/ml LN stripes.
The mark [11] stands for this setting: 0.25 mg/ml KS/CS-PG + LN stripes.
[12] abbreviates: 0.5 mg/ml KS/CS-PG + LN stripes.
Where [13] appears, read: 1.0 mg/ml KS/CS-PG + LN stripes.
Where [14] appears, read: 2.7 mg/ml KS/CS-PG + LN stripes.

Dermatan sulfate proteoglycan [DS-PG]: the “Time Dependent Effect of DS-PG on 3T3 Cell Migration” value (“Time Dependent Effect of DS-PG” for short) in assay [1] (0.1 mg/ml (1.25 μM), 1d) is reported as “+”; in assay [1] (0.1 mg/ml (1.25 μM), 2d) it was “+”; in assay [1] (0.1 mg/ml (1.25 μM), 3d) it was “+”; in assay [1] (0.1 mg/ml (1.25 μM), 4d), “+”; in assay [1] (0.1 mg/ml (1.25 μM), 7d) it was “+”; in assay [1] (0.2 mg/ml (2.5 μM), 1d), “+/−”. In addition, the “Time Dependent Effect of DS-PG” value is “+/−” in assay [1] (0.2 mg/ml (2.5 μM), 2d); “+/−” in assay [1] (0.2 mg/ml (2.5 μM), 3d); “+/−” in assay [1] (0.2 mg/ml (2.5 μM), 4d); “+” in assay [1] (0.2 mg/ml (2.5 μM), 7d); “−” in assay [1] (0.4 mg/ml (5 μM), 1d); “−” in assay [1] (0.4 mg/ml (5 μM), 2d). Besides, the “Time Dependent Effect of DS-PG” value in assay [1] (0.4 mg/ml (5 μM), 3d) is “−”; in assay [1] (0.4 mg/ml (5 μM), 4d) it was “−”; in assay [1] (0.4 mg/ml (5 μM), 7d), “+/−”; in assay [1] (0.8 mg/ml (10 μM), 1d), “−”; in assay [1] (0.8 mg/ml (10 μM), 2d), “−”; in assay [1] (0.8 mg/ml (10 μM), 3d), “−”. Besides, the “Time Dependent Effect of DS-PG” value in assay [1] (0.8 mg/ml (10 μM), 4d) is “−”; in assay [1] (0.8 mg/ml (10 μM), 7d), “+/−”. Further, the “DS-PG Effect on Adhesion, Migration and Invasion” value (“DS-PG Effect on Adhesion” below) in assay [1] (setting [7]) is given as “+”; in assay [1] (setting [8]), “+/−”; in assay [1] (setting [9]) it was “−”; in assay [1] (setting [10]) it was “−”; in assay [2] (setting [7]), “+/−”; in assay [2] (setting [8]), “+/−”. Besides, the “DS-PG Effect on Adhesion” value in assay [2] (setting [9]) was “−”; in assay [2] (setting [10]), “−”; in assay [3] (setting [7]), “+”; in assay [3] (setting [8]), “+/−”; in assay [3] (setting [9]), “−”; in assay [3] (setting [10]), “−”. Besides, the “DS-PG Effect on Adhesion” value in assay [4] (setting [7]) is reported as “+”; in assay [4] (setting [8]) it was “+/−”; in assay [4] (setting [9]), “−”; in assay [4] (setting [10]) it was “−”; in assay [5] (setting [7]) it was “+”; in assay [5] (setting [8]), “+”. For the same substance, the “DS-PG Effect on Adhesion” value in assay [5] (setting [9]) and in assay [5] (setting [10]) was “−” each time.

In the case of dextran [reference compound], in assay [6], the “TOTAL SCORE 4 WEEKS” value was found to be 10.0 ± 1.2.

With dextran sulfate, the “TOTAL SCORE 4 WEEKS” value in assay [6] worked out at 1.8 ± 0.9.

For “keratan sulfate/chrondroitin sulfate-proteoglycans [KS/CS-PG]”, the “Effect of KS/CS-PG on Cell Migration” value is on record as “+” in assay [1] (setting [11]); “+/−” in assay [1] (setting [12]); “+/−” in assay [1] (setting [13]); “−” in assay [1] (setting [14]); “+” in assay [2] (setting [11]); “+/−” in assay [2] (setting [12]). Also, the “Effect of KS/CS-PG on Cell Migration” value in assay [2] (setting [13]) is “+/−”; in assay [2] (setting [14]), “+/−”; in assay [3] (0.12 mg/ml KS/CS-PG + LN stripes), “+”; in assay [3] (setting [11]) it was “+/−”; in assay [3] (setting [12]) it was “+/−”; in assay [3] (setting [13]), “+/−”. Also, the “Effect of KS/CS-PG on Cell Migration” value in assay [3] (setting [14]) is reported as “−”; in assay [4] (setting [11]) it was “+”; in assay [4] (setting [12]), “−”; in assay [4] (setting [13]), “−”; in assay [4] (setting [14]), “−”; in assay [5] (setting [11]), “+”. For the same substance, the “Effect of KS/CS-PG on Cell Migration” value in assay [5] (setting [12]) is “+”; in assay [5] (setting [13]), “+”; in assay [5] (setting [14]), “+/−”.
